The source made the active and inactive calls. The calls are words filed in the database; no cut-off is given here.
Experiments:
A2780 [1] = assay: Antiproliferative activity against human A2780 cells assessed as cell viability at 50 uM incubated for 72 hrs by CCK8 assay; type: functional; settings: read-out: Activity
A2780 [2] = assay: Antiproliferative activity against human A2780 cells assessed as cell viability incubated for 72 hrs by CCK8 assay; type: functional, cell-based; settings: A2780, 72 h
[3] = Cytotoxicity against HK-2 cells; type: toxicity, cell-based; settings: human
[4] = Cytotoxicity against non-cancerous fallopian tube ovarian cell (unknown origin); type: toxicity, cell-based; settings: non-cancerous fallopian tube ovarian cells
A2780 [5] = assay: Induction of apoptosis in human A2780 cells assessed as increase in cleaved caspase-3 level at IC50 concentration incubated for 72 hrs by immunoblotting analysis; type: functional, cell-based
A2780 [6] = assay: Induction of apoptosis in human A2780 cells assessed as increase in cleaved PARP level at IC50 concentration incubated for 72 hrs by immunoblotting analysis; type: functional, cell-based
A2780 [7] = assay: Induction of apoptosis in human A2780 cells assessed as increase in cytochrome C release at IC50 concentration incubated for 72 hrs by immunoblotting analysis; type: functional, cell-based
A2780 [8] = assay: Induction of apoptosis in human A2780 cells assessed as increase in cleaved caspase-8 level at IC50 concentration incubated for 72 hrs by immunoblotting analysis; type: functional, cell-based
A2780 [9] = assay: Reduction in IDO1 level in human A2780 cells at IC50 concentration incubated for 72 hrs by immunoblotting analysis; type: functional, cell-based
A2780 [10] = assay: Reduction in PD-L1 expression in human A2780 cells at IC50 concentration incubated for 72 hrs by immunoblotting analysis; type: functional, cell-based
A2780 [11] = assay: Inhibition of tumor sphere formation in human A2780 cells at IC50 concentration; type: functional, cell-based
A2780 [12] = assay: Downregulation of Sox2 expression in human A2780 cells at IC50 concentration; type: functional, cell-based
A2780 [13] = assay: Downregulation of CD133 expression in human A2780 cells at IC50 concentration; type: functional, cell-based
A2780 [14] = assay: Downregulation of Oct4 expression in human A2780 cells at IC50 concentration; type: functional, cell-based
A2780 [15] = assay: Downregulation of Nanog expression in human A2780 cells at IC50 concentration; type: functional, cell-based
A2780 [16] = assay: Cytotoxicity against cisplatin resistant human A2780 cells assessed as reduction in cell viability at IC50 concentration incubated for 72 hrs in presence of cisplatin by CCK-8 method; type: functional, cell-based
A2780 [17] = assay: Induction of apoptosis in human A2780 cells assessed as increase in mature AIF expression at IC50 concentration incubated for 72 hrs by immunoblotting analysis; type: functional, cell-based
A2780 [18] = assay: Induction of apoptosis in human A2780 cells assessed as increase in cleaved caspase-9 level at IC50 concentration incubated for 72 hrs by immunoblotting analysis; type: functional, cell-based
A2780 [19] = assay: Inhibition of tumor sphere formation in human A2780 cells assessed as reduction in diameter of the sphere at IC50 concentration (Rvb > 200 micrometer); type: functional

For `O=C(Nc1ccc(I)cc1F)C1CCN(c2ncnc3ccccc23)CC1`, the viability at 50 µM (A2780 [1]) was 76%.

In the case of `O=C(Nc1ccc(Cl)cc1)C1CCN(c2ncnc3ccccc23)CC1`, the viability at 50 µM (A2780 [1]) is reported as 26%, the IC50 (A2780 [2]) is reported as 5.68 µM and the IC50 [3] is reported as > 50 µM. For the same compound, the IC50 [4] was > 50 µM, the Activity (A2780 [5]) was “Active” and the Activity (A2780 [6]) was “Active”. The Activity (A2780 [7]) was “Active”, the Activity (A2780 [8]) was “Active” and the Activity (A2780 [9]) was “Active”. For the same compound, the Activity (A2780 [10]) was “Active”, the inhibition (A2780 [11]) was “Active” and the Activity (A2780 [12]) was “Active”. For the same compound, the Activity (A2780 [13]) was “Active”, the Activity (A2780 [14]) was “Active” and the Activity (A2780 [15]) was “Active”. For the same compound, the Activity (A2780 [16]) was “Active”.

Work on `O=C(Nc1ccccc1F)C1CCN(c2ncnc3ccccc23)CC1` yielded a viability at 50 µM (A2780 [1]) of 52%.

For `O=C(Nc1ccc(Br)cc1)C1CCN(c2ncnc3ccccc23)CC1`, the viability at 50 µM (A2780 [1]) was 28%, the IC50 (A2780 [2]) was 10.8 µM and the IC50 [3] was > 50 µM. For the same compound, the IC50 [4] was > 50 µM, the Activity (A2780 [8]) was “Active” and the Activity (A2780 [17]) was “Active”. For the same compound, the Activity (A2780 [9]) was “Active”, the Activity (A2780 [10]) was “Active” and the inhibition (A2780 [11]) was “Active”. The Activity (A2780 [12]) was “Active”, the Activity (A2780 [13]) was “Active” and the Activity (A2780 [14]) was “Active”. For the same compound, the Activity (A2780 [15]) was “Active”.

`O=C(Nc1cccc(F)c1)C1CCN(c2ncnc3ccccc23)CC1` gave a viability at 50 µM (A2780 [1]) of 58%.

In the case of `O=C(Nc1ccc([N+](=O)[O-])cc1)C1CCN(c2ncnc3ccccc23)CC1`, the viability at 50 µM (A2780 [1]) is reported as 33%, the IC50 (A2780 [2]) is reported as 4.95 µM and the IC50 [3] is reported as > 50 µM. The IC50 [4] was > 50 µM, the Activity (A2780 [5]) was “Active” and the Activity (A2780 [6]) was “Active”. For the same compound, the Activity (A2780 [7]) was “Active”, the Activity (A2780 [17]) was “Active” and the Activity (A2780 [9]) was “Active”. The Activity (A2780 [10]) was “Active”, the inhibition (A2780 [11]) was “Active” and the Activity (A2780 [12]) was “inactive”. The Activity (A2780 [13]) was “Active” and the Activity (A2780 [15]) was “Active”.

For `Nc1nonc1C(=NO)Nc1ccc(F)c(Cl)c1`, the IC50 (A2780 [2]) was 14.9 µM, the IC50 [3] was 30.8 µM and the IC50 [4] was 18.4 µM.

In the case of `O=C(Nc1ccccc1Cl)C1CCN(c2ncnc3ccccc23)CC1`, the viability at 50 µM (A2780 [1]) is reported as 30%, the IC50 (A2780 [2]) is reported as 22.6 µM and the IC50 [3] is reported as > 50 µM. The IC50 [4] was > 50 µM, the Activity (A2780 [5]) was “Active” and the Activity (A2780 [6]) was “Active”. For the same compound, the Activity (A2780 [7]) was “Active”, the Activity (A2780 [8]) was “Active” and the Activity (A2780 [17]) was “Active”. The Activity (A2780 [18]) was “Active”, the Activity (A2780 [9]) was “Active” and the Activity (A2780 [10]) was “Active”. The inhibition (A2780 [11]) was “Active”, the Activity (A2780 [12]) was “Active” and the Activity (A2780 [13]) was “Active”. For the same compound, the Activity (A2780 [14]) was “Active” and the Activity (A2780 [15]) was “Active”.

`COc1ccc(NC(=O)C2CCN(c3ncnc4ccccc34)CC2)c(OC)c1` gave a viability at 50 µM (A2780 [1]) of 60%.

In the case of `O=C(Nc1ccccc1)C1CCN(c2ncnc3ccccc23)CC1`, the viability at 50 µM (A2780 [1]) is reported as 42%, the IC50 (A2780 [2]) is reported as > 50 µM and the IC50 [3] is reported as > 50 µM. The IC50 [4] was > 50 µM.

In the case of `O=C(Nc1cccc(Cl)c1)C1CCN(c2ncnc3ccccc23)CC1`, the viability at 50 µM (A2780 [1]) is reported as 22%, the IC50 (A2780 [2]) is reported as 12.2 µM and the IC50 [3] is reported as > 50 µM. The IC50 [4] was > 50 µM, the Activity (A2780 [5]) was “Active” and the Activity (A2780 [6]) was “Active”. For the same compound, the Activity (A2780 [7]) was “Active”, the Activity (A2780 [8]) was “Active” and the Activity (A2780 [18]) was “Active”. The Activity (A2780 [9]) was “Active”, the Activity (A2780 [10]) was “Active” and the inhibition (A2780 [11]) was “Active”. The Activity (A2780 [12]) was “Active”, the Activity (A2780 [13]) was “Active” and the Activity (A2780 [14]) was “Active”. The Activity (A2780 [15]) was “Active”.

Compound `O=C(Nc1ccc(F)c(Cl)c1)C1CCN(c2ncnc3ccccc23)CC1` has a viability at 50 µM (A2780 [1]) of 53%.

In the case of `COc1ccc(NC(=O)C2CCN(c3ncnc4ccccc34)CC2)cc1`, the viability at 50 µM (A2780 [1]) is reported as 27%, the IC50 (A2780 [2]) is reported as 9.91 µM and the IC50 [3] is reported as > 50 µM. For the same compound, the IC50 [4] was > 50 µM, the Activity (A2780 [5]) was “Active” and the Activity (A2780 [6]) was “Active”. For the same compound, the Activity (A2780 [7]) was “Active”, the Activity (A2780 [17]) was “Active” and the Activity (A2780 [9]) was “Active”. The Activity (A2780 [10]) was “Active”, the Activity (A2780 [19]) was <200 um and the Activity (A2780 [12]) was “inactive”. The Activity (A2780 [13]) was “Active” and the Activity (A2780 [15]) was “Active”.

`O=C(Nc1ccc(F)cc1)C1CCN(c2ncnc3ccccc23)CC1` showed a viability at 50 µM (A2780 [1]) of 68%.

Work on `O=C(Nc1cccc2c1OCCO2)C1CCN(c2ncnc3ccccc23)CC1` yielded a viability at 50 µM (A2780 [1]) of 64%.

Reference: ChEMBL document CHEMBL5576056, “Design, synthesis and biological evaluation of novel quinazoline derivatives as immune checkpoint inhibitors” (Bioorg Med Chem Lett, 2024)
